Series [1] has as its target Voltage-gated inwardly rectifying potassium channel KCNH2 (Homo sapiens, UniProt Q12809). In words: Binding affinity to human ERG by radioligand binding assay.
Series [2] in a line: Aqueous solubility of the compound at pH 6.8. The series is classed as physicochemical.

≈ marks a conversion by molar mass, not a printed value.

Sequence of Voltage-gated inwardly rectifying potassium channel KCNH2 (Q12809 whole entry): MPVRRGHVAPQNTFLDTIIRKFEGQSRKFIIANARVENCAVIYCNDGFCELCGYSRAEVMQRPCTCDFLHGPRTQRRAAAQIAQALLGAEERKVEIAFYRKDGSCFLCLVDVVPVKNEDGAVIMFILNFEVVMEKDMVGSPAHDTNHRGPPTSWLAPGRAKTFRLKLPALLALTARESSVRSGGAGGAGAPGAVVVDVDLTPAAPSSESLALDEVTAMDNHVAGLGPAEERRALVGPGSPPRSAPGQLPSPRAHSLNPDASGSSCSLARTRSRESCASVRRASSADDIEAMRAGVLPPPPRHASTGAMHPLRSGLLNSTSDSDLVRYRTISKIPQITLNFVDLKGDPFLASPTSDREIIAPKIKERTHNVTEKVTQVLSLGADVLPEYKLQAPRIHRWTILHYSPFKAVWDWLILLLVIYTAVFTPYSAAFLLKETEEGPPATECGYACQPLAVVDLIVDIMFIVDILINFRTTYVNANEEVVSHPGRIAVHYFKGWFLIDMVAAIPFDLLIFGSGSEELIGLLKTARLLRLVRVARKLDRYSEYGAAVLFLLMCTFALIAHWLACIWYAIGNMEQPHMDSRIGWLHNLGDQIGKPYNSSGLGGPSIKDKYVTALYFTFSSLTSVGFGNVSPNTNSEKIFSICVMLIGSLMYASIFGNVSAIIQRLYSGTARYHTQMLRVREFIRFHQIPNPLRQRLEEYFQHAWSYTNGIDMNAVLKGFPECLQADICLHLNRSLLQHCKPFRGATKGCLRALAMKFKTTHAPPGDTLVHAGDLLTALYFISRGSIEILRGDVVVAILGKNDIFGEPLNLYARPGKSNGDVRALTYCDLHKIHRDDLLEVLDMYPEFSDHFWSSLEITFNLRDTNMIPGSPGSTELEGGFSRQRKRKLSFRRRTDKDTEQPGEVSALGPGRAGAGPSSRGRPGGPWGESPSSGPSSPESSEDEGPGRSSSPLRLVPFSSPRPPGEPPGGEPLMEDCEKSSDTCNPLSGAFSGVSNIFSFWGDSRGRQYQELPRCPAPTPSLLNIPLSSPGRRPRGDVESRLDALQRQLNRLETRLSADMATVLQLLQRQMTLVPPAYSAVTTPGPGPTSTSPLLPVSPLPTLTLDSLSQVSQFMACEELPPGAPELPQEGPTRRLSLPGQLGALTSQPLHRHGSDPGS

`CC(C)(C)c1cc(NC(=O)c2cnc3cc(Oc4ncnc5c4CNC5)ccn23)no1` displayed an IC50 in series [1] of 9.2 µM. Besides, in series [2], the solubility came to 456 µM (≈ 191 µg/mL).
As for `CC(C)(C)c1cc(NC(=O)n2ccc3nc(Oc4ncnc5c4CNC5)ccc32)no1`, the IC50 in series [1] is 26 µM. The same compound registered a solubility in series [2] of 260 µM (≈ 109 µg/mL).
For the compound `C[C@H]1Cc2c(ncnc2Oc2ccc3c(ccn3C(=O)Nc3cc(C4(C(F)(F)F)CC4)on3)c2)CN1`, the IC50 in series [1] was found to be 7.4 µM. Besides, in series [2], the solubility was 34 µM (≈ 16.9 µg/mL).
With `CC(C)(C)c1cc(NC(=O)n2ccc3ccc(Oc4ncnc5c4CNC5)cc32)no1`, the IC50 in series [1] was determined as 21 µM. This compound yielded a solubility in series [2] of 81 µM (≈ 33.9 µg/mL).
The compound `CC1(c2cc(NC(=O)c3ccn4cc(Oc5ncnc6c5CNC6)ccc34)n[nH]2)CC1` had a solubility in series [2] of 280 µM (≈ 116 µg/mL).
The compound `C[C@H]1Cc2c(ncnc2Oc2ccc3ccn(C(=O)Nc4cc(C5(C(F)(F)F)CC5)on4)c3c2)CN1` came in with a half-inhibitory concentration (IC50) in series [1] of 8.6 µM. The compound further came in with a solubility in series [2] of 3 µM (≈ 1.5 µg/mL).
Taken in the same sequence, the figures for `CC(C)(C)c1cc(NC(=O)n2ccc3ncc(Oc4ncnc5c4CNC5)cc32)no1` were over 30 µM and 240 µM (≈ 101 µg/mL).
In series [1], `CC(C)(C)c1cc(NC(=O)n2ncc3cc(Oc4ncnc5c4CNC5)ccc32)no1` displayed an IC50 of 7.7 µM. Further, the concentration in solution in series [2] (solubility) came to 9 µM (≈ 3.78 µg/mL).
Taken in the same sequence, the figures for `CC(C)(C)c1cc(NC(=O)n2ccc3cc(Oc4ncnc5c4CNC5)cnc32)no1` were 5.7 µM and 25 µM (≈ 10.5 µg/mL).

The record behind these values is ChEMBL document CHEMBL3808377, “Core Replacements in a Potent Series of VEGFR-2 Inhibitors and Their Impact on Potency, Solubility, and hERG” (ACS Med Chem Lett, 2016).
